How the values were obtained:
[1] = target: Vasopressin V2 receptor (Rattus norvegicus) (UniProt Q00788); experiment: Effective dose was determined for Vasopressin V2 receptor antagonistic activity in vivo in anesthetized rats; type: functional, organism-based
[2] = target: Vasopressin V1 receptor (Rattus norvegicus) (UniProt P48974+P30560); experiment: Effective dose was determined for Vasopressin V1 receptor antagonistic activity in vivo in anesthetized rats; type: functional, organism-based
[3] = target: Vasopressin V2 receptor (Rattus norvegicus) (UniProt Q00788); experiment: Selectivity ratio of antidiuretic Vasopressin V2 receptor ED /[…] receptor ED; conditions: Urine
Vasopressin V1 receptor = Vasopressin V1 receptor (Rattus norvegicus, UniProt P48974+P30560); experiment: pA2 value was determined for Vasopressin V1 receptor antagonistic activity in vivo in anesthetized rats; type: functional, organism-based

Vasopressin V2 receptor (Rattus norvegicus), sequence (Q00788 whole entry): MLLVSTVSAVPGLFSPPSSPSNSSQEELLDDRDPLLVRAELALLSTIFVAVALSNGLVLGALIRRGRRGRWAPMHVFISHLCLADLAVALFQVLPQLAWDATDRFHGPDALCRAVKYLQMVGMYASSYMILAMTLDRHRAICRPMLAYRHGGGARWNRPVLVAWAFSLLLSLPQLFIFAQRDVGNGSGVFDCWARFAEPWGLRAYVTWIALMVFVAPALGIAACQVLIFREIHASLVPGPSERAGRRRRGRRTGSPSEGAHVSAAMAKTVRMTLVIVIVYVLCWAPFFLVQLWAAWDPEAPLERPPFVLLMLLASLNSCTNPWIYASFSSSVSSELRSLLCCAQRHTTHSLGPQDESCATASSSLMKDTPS
Vasopressin V1 receptor (Rattus norvegicus), sequence (P30560 whole entry, looked up): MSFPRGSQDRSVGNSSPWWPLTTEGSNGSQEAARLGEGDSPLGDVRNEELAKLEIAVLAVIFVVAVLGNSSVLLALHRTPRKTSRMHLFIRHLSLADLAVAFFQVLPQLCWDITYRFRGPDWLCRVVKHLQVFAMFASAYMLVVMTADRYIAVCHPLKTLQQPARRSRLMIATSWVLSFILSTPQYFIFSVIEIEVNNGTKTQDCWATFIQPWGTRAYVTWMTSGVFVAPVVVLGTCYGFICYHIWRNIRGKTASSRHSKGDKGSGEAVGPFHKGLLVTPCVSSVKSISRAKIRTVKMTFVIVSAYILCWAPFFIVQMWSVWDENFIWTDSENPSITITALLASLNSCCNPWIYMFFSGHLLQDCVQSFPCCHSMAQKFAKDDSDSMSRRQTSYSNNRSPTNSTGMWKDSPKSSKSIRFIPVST
Vasopressin V1 receptor (Rattus norvegicus), sequence (P48974 whole entry, looked up): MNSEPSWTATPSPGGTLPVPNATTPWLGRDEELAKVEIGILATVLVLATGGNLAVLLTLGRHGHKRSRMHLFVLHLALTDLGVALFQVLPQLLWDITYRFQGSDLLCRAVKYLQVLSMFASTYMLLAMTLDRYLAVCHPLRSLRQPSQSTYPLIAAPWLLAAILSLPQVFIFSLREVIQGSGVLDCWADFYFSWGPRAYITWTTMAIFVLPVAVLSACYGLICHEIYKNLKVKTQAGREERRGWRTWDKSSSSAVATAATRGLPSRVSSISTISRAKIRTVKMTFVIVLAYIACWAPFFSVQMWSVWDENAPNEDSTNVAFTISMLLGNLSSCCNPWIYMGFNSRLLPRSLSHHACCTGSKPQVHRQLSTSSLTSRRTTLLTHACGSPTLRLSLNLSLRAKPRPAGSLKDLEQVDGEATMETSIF

Structure (SMILES) | Effective dose [1] [nM/kg] | Effective dose [2] [nM/kg] | Ratio [3] | pA2 (Vasopressin V1 receptor)
CCOc1ccc(C[C@@H](NC(=O)Cc2ccccc2)C(=O)N[C@@H](Cc2ccccc2)C(=O)N[C@@H](CCC(N)=O)C(=O)N[C@@H](CC(N)=O)C(=O)N[C@@H](CCCCN)C(=O)N2CCC[C@@H]2C(=O)N[C@@H](CCCN=C(N)N)C(N)=O)cc1 | 40 | 0.07 | 570 | 
CC(C)[C@H](NC(=O)[C@H](Cc1ccccc1)NC(=O)[C@@H](Cc1ccc(O)cc1)NC(=O)Cc1ccccc1)C(=O)N[C@@H](CC(N)=O)C(=O)N[C@@H](CCCN=C(N)N)C(=O)N1CCC[C@H]1C(=O)N[C@@H](CCCN=C(N)N)C(=O)N[C@@H](CCCN=C(N)N)C(N)=O |  |  |  | 8.62
CCOc1ccc(C[C@H]2NC(=O)CC3(CCCCC3)SSC[C@H](C(=O)N3CCC[C@H]3C(=O)N[C@@H](CCCN=C(N)N)C(N)=O)NC(=O)[C@@H](CC(N)=O)NC(=O)[C@H](C(C)C)NC(=O)[C@@H](Cc3ccccc3)NC2=O)cc1 | 1.5 | 0.45 | 3.3 | 
CCOc1ccc(C[C@@H](NC(=O)Cc2ccccc2)C(=O)N[C@@H](Cc2ccccc2)C(=O)N[C@H](C(=O)N[C@@H](CC(N)=O)C(=O)N[C@@H](CCCCN)C(=O)N2CCC[C@@H]2C(=O)N[C@@H](CCCN=C(N)N)C(N)=O)C(C)C)cc1 | 2.9 | 0.11 | 26 | 
NCCCC[C@H](NC(=O)[C@H](CC(N)=O)NC(=O)[C@H](CCC(N)=O)NC(=O)[C@H](Cc1ccccc1)NC(=O)[C@@H](Cc1ccc(O)cc1)NC(=O)Cc1ccccc1)C(=O)N1CCC[C@@H]1C(=O)N[C@@H](CCCN=C(N)N)C(N)=O | 5 | 0.085 | 59 | 
CCOc1ccc(C[C@H]2NC(=O)CC3(CCCCC3)SSC[C@H](C(=O)N3CCC[C@H]3C(=O)N[C@@H](CCCN=C(N)N)C(=O)NCC(N)=O)NC(=O)[C@@H](CC(N)=O)NC(=O)[C@H](C(C)C)NC(=O)[C@@H](Cc3ccccc3)NC2=O)cc1 | 1.1 | 0.45 |  | 8.22
COc1ccc(C[C@@H](NC(=O)Cc2ccccc2)C(=O)N[C@@H](Cc2ccccc2)C(=O)N[C@H](C(=O)N[C@@H](CC(N)=O)C(=O)N[C@@H](CCCCN)C(=O)N2CCC[C@@H]2C(=O)N[C@@H](CCCN=C(N)N)C(N)=O)C(C)C)cc1 | 6 | 0.17 | 35 | 

Further lines, with some results ahead:

Effective dose [1] [nM/kg] | Effective dose [2] [nM/kg] | Ratio [3] | Structure (SMILES) | pA2 (Vasopressin V1 receptor)
0.9 | 1.6 | 0.6 | CCOc1ccc(C[C@@H](NC(=O)CC23CC4CC(CC(C4)C2)C3)C(=O)N[C@@H](Cc2ccccc2)C(=O)N[C@H](C(=O)N[C@@H](CC(N)=O)C(=O)N[C@@H](CCCN)C(=O)N2CCC[C@@H]2C(=O)N[C@@H](CCCN=C(N)N)C(=O)N[C@@H](CCCN=C(N)N)C(N)=O)C(C)C)cc1 | 
> 7 | 0.17 | 41 | CCOc1ccc(C[C@@H](NC(=O)CC(C)(C)C)C(=O)N[C@@H](Cc2ccccc2)C(=O)N[C@H](C(=O)N[C@@H](CC(N)=O)C(=O)N[C@@H](CCCCN)C(=O)N2CCC[C@@H]2C(=O)N[C@@H](CCCN=C(N)N)C(N)=O)C(C)C)cc1 | 
9.8 | 0.24 | 41 | CCOc1ccc(C[C@@H](NC(=O)Cc2ccccc2)C(=O)N[C@@H](Cc2ccccc2)C(=O)N[C@H](C(=O)N[C@@H](CC(N)=O)C(=O)N[C@@H](CCCCN)C(=O)N2CCC[C@@H]2C(=O)N[C@@H](CCCN=C(N)N)C(=O)N[C@@H](CCCN=C(N)N)C(N)=O)C(C)C)cc1 | 
1.7 |  | 4.3 | CC(C)[C@H](NC(=O)[C@H](Cc1ccccc1)NC(=O)[C@@H](Cc1ccc(O)cc1)NC(=O)CC12CC3CC(CC(C3)C1)C2)C(=O)N[C@@H](CC(N)=O)C(=O)N[C@@H](CCCN=C(N)N)C(=O)N1CCC[C@@H]1C(=O)N[C@@H](CCCN=C(N)N)C(=O)N[C@@H](CCCN=C(N)N)C(N)=O | 
 | 0.16 |  | CC(C)[C@H](NC(=O)[C@H](Cc1ccccc1)NC(=O)[C@@H](Cc1ccc(O)cc1)NC(=O)Cc1ccccc1)C(=O)N[C@@H](CC(N)=O)C(=O)N[C@@H](CCCN=C(N)N)C(=O)N1CCC[C@@H]1C(=O)N[C@@H](CCCN=C(N)N)C(=O)N[C@@H](CCCN=C(N)N)C(N)=O | 
